ChEMBL document CHEMBL1201862, “PubChem BioAssay data set” (2004)
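Step 1: Grow cells in 96-well plates. Step 2: Expose to compound for 48 hours at 5 concentrations. Step 3: Interpolate endpoints linearly; if unreached, use highest concentration. At the GI50, growth is halved.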 Activity calls are given as the source filed them. Cut-off read from the data, not from the text of the source: active = GI50 up to about 1.1 µM and inactive = higher.

Legend:
Assay in all cases: NCI anticancer screen, dose series, 48 h
A549 = tested on: A549
ACHN = tested on: ACHN
EKVX = tested on: EKVX
HL-60 = tested on: HL-60
HOP-62 = tested on: HOP-62
LOX IMVI = tested on: LOX IMVI
M14 = tested on: M14
Malme-3M = tested on: Malme-3M
NCI-H460 = tested on: NCI-H460
OVCAR-4 = tested on: OVCAR-4
OVCAR-5 = tested on: OVCAR-5
PC-3 = tested on: PC-3
SF-268 = tested on: SF-268
SF-295 = tested on: SF-295
SK-MEL-28 = tested on: SK-MEL-28
SK-MEL-2 = tested on: SK-MEL-2
SW-620 = tested on: SW-620
T47D = tested on: T47D
TK-10 = tested on: TK-10
UACC-62 = tested on: UACC-62

Measured: GI50

CCOC(=O)/C=C1\Nc2ccccc2C12CCc1c([nH]c3ccccc13)C2C(=O)OCC (stereo not given)
inactive: A549 29.7 µM | ACHN 49.2 µM | EKVX 18.8 µM | HL-60 26.1 µM | HOP-62 > 100 µM | LOX IMVI 39.2 µM | M14 25.2 µM | Malme-3M 10.3 µM | NCI-H460 12 µM | OVCAR-4 16.3 µM | OVCAR-5 > 100 µM | PC-3 > 100 µM | SF-268 30.1 µM | SF-295 79.4 µM | SK-MEL-28 61.2 µM | SK-MEL-2 45.5 µM | SW-620 17.8 µM | T47D 61.2 µM | TK-10 23.8 µM | UACC-62 59.3 µM

Cc1cc[n+]2c(c1)-c1cc(C)cc[n+]1CC2
inactive: A549 > 100 µM | ACHN > 100 µM | EKVX > 100 µM | HL-60 > 100 µM | HOP-62 > 100 µM | LOX IMVI > 100 µM | M14 > 100 µM | Malme-3M 99.5 µM | NCI-H460 > 100 µM | OVCAR-4 > 100 µM | OVCAR-5 > 100 µM | PC-3 > 76.7 µM | SF-268 > 100 µM | SF-295 > 100 µM | SK-MEL-28 > 100 µM | SK-MEL-2 > 100 µM | SW-620 > 100 µM | T47D > 100 µM | TK-10 > 100 µM | UACC-62 > 100 µM
